Reference: patent US20110105457A1, “HETEROCYCLIC COMPOUND HAVING INHIBITORY ACTIVITY ON PI3K” (SHIONOGI & CO., LTD., priority 2008, published 2011)

Key:
[1] = biological target: T1, PI-3 kinase γ (Homo sapiens, UniProt P48736); assay: PI3Kγ inhibitory activity, PI3-kinase HTRF assay (Millipore); type: biochemical; details: 0.5 h; compound 50 μM; read-out: Inhibition ratio % (50 μM)
Procedure, shortened: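 HTRF assay: PI3Kγ preincubated 10 min with compound and PIP2 substrate in MgCl2/DTT buffer, then reaction started with ATP and run 30 min at room temperature before EDTA/biotin-PIP3 quench. Read after 18 h with Eu anti-GST/GST-PH domain/APC-streptavidin as 665/620 nm ratio; inhibition relative to no-compound (100%) and no-enzyme (0%) wells.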

[2] = biological target: T2, CYP1A2 (Homo sapiens, UniProt P05177); assay: CYP inhibition test, pooled human liver microsome, O-de-ethylation of 7-ethoxyresorufin; type: in vitro ADME
T2 construct: Using a pooled human liver microsome commercially available; from tissue; host or cells: pooled human liver microsomes
T2 sequence (P05177 1-516): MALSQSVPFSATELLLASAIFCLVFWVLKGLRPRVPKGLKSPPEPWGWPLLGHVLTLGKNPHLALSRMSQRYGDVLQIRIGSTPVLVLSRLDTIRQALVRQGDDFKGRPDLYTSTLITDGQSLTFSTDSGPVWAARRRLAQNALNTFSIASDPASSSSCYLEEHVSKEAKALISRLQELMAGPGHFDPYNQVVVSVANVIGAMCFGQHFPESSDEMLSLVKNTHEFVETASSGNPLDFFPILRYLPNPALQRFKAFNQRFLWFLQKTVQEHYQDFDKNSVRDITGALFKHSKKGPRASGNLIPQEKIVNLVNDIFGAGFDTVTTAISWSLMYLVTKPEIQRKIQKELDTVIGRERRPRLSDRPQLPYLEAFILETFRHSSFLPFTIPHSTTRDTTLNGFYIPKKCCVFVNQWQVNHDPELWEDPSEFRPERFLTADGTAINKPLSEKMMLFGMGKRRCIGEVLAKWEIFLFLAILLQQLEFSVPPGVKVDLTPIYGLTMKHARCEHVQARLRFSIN
Method: (§1) Using a pooled human liver microsome commercially available, and selecting as indexes O-de-ethylation of 7-ethoxyresorufin (CYP1A2), methyl-hydroxylation of tolbutamide (CYP2C9), 4′-hydroxylation of mephenyloin (CYP2C19), O-demethylation of dextromethorphan (CYP2D6), and hydroxylation of terfenadine (CYP3A4), which are typical substrate metabolic reactions of human main CYP5 molecular species (CYP1A2, 2C9, 2C19, 2D6, and 3A4), it was evaluated in what degree the amount of each metabolite produced was inhibited by a test compound.
(§2) The reaction condition is as follows: substrate, 0.5 μmol/L of ethoxyresorufin (CYP1A2), 100 μmol/L of tolbutamide (CYP2C9), 50 μmol/L of S-mephenyloin (CYP2C19), 5 μmol/L of dextromethorphan (CYP2D6), and 1 μmol/L of terfenadine (CYP3A4); reaction time, 15 minutes; reaction temperature, 37 degrees Celsius; enzyme, pooled human liver microsome 0.2 mg protein/mL; test drug concentration, 1, 5, 10, and 20 μmol/L (4 points).
(§3) To a 96-well plate was added five kinds of substrates, a human liver microsome, and a test drug in 50 mM Hepes buffer solution as a reaction solution in the aforementioned constitution. A coenzyme NADPH was added to start a metabolic reaction, which is an index. After reacting at 37 degrees Celsius for 15 minutes, a solution of methanol/acetonitrile (1/1 (v/v)) was added to quench the reaction. After centrifugation at 3000 rpm for 15 minutes, resorufine (CYP1A2 metabolite) in the supernatant was quantitated with a fluorescence multilabel counter, and hydroxylated tolbutamide (CYP2C9 metabolite), 4′-hydroxylated mephenyloin (CYP2C19 metabolite), […] (CYP2D6 metabolite), terfenadine in alcohol form (CYP3A4 metabolite) were quantitated with LC/MS/MS.
(§4) The case that only DMSO, a solvent which dissolved a drug, was added to a reaction system was defined as a control (100%). The remaining activity (%) at each concentration in cases that a test drug solution was added was calculated, and then IC50 was calculated with a concentration and an inhibition ratio by an inverse estimation using a logistic model.

[3] = biological target: T3, CYP2C9 (Homo sapiens, UniProt P11712); assay: CYP inhibition test, pooled human liver microsome, methyl-hydroxylation of tolbutamide; type: in vitro ADME
T3 construct: Using a pooled human liver microsome commercially available; from tissue; host or cells: pooled human liver microsomes
T3 sequence (P11712 whole entry): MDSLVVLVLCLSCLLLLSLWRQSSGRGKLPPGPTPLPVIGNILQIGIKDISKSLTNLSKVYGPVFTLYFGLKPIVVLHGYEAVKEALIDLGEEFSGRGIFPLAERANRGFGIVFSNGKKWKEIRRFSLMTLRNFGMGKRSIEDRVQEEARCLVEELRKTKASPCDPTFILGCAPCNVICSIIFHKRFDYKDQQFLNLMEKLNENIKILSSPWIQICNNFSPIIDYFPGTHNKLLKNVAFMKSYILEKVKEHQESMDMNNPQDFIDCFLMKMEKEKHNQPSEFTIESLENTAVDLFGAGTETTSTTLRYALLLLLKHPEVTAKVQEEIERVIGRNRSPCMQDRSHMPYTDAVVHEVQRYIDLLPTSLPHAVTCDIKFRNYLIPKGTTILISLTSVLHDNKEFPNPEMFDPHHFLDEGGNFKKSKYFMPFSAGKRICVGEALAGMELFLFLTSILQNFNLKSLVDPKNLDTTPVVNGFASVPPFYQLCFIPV
Method: as §1, §2, §3, §4

[4] = biological target: T4, CYP2C19 (Homo sapiens, UniProt P33261); assay: CYP inhibition test, pooled human liver microsome, 4′-hydroxylation of mephenyloin; type: in vitro ADME; details: S-mephenyloin
T4 construct: Using a pooled human liver microsome commercially available; from tissue; host or cells: pooled human liver microsomes
T4 sequence (P33261 whole entry): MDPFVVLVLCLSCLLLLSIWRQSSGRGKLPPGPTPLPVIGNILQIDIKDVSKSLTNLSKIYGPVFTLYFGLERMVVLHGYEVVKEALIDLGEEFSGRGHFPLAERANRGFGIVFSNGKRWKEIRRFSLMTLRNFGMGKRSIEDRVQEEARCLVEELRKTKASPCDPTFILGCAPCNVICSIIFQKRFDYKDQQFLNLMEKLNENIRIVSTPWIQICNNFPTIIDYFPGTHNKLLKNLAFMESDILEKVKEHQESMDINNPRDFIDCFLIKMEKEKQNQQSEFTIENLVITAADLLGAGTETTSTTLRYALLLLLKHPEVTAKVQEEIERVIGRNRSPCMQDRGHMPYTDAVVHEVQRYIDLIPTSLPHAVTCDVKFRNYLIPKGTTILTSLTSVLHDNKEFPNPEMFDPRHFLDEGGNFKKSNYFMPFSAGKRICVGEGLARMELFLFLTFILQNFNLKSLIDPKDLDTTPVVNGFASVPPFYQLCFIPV
Method: as §1, §2, §3, §4

[5] = biological target: T5, CYP2D6 (Homo sapiens, UniProt P10635); assay: CYP inhibition test, pooled human liver microsome, O-demethylation of dextromethorphan; type: in vitro ADME
T5 construct: Using a pooled human liver microsome commercially available; from tissue; host or cells: pooled human liver microsomes
T5 sequence (P10635 whole entry): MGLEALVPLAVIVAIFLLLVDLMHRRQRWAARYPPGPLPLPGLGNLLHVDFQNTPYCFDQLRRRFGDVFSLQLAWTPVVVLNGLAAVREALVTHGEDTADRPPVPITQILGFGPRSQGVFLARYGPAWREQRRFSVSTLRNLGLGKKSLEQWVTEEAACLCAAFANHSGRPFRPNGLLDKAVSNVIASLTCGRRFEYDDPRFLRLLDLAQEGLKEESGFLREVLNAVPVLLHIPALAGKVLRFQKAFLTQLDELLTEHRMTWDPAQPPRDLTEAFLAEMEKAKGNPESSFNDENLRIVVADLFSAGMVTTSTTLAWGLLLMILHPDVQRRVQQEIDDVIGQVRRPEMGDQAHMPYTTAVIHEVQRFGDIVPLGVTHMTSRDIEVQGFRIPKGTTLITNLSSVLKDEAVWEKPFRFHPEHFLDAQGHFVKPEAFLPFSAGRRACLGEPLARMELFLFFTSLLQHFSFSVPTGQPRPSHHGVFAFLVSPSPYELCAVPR
Method: as §1, §2, §3, §4

[6] = biological target: T6, CYP3A4 (Homo sapiens, UniProt P08684); assay: CYP inhibition test, pooled human liver microsome, hydroxylation of terfenadine; type: in vitro ADME
T6 construct: Using a pooled human liver microsome commercially available; from tissue; host or cells: pooled human liver microsomes
T6 sequence (P08684 whole entry): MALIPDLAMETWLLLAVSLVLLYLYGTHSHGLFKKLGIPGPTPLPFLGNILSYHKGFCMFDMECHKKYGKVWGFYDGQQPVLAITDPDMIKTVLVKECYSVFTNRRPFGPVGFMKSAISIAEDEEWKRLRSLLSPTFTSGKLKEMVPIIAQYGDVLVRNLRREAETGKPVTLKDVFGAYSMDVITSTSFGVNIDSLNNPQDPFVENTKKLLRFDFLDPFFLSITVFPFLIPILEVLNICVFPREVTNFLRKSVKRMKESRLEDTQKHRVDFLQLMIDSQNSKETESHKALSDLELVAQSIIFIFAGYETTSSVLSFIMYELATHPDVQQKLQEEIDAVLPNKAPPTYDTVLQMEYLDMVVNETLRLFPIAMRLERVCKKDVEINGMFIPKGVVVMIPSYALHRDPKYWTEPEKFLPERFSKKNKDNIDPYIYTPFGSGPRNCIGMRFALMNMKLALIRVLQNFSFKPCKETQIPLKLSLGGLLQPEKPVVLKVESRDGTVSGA
Method: as §1, §2, §3, §4

[7] = test system: AKT phosphorylation (Ser473) in THP-1 cells; assay: AKT phosphorylation inhibitory activity in MCP-1 stimulated THP-1 cells (ELISA); type: cell-based, human; details: MCP-1 stimulation, compound concentration not given
Method: (1) The AKT phosphorylation inhibitory activity of a compound was evaluated according to the following procedure. (2) Human monocyte-like cell line THP-1 was washed with RPMI-1640 media, incubated in the presence of 5% CO2 at 37 degrees Celsius for 3 hours, washed with Hank's balanced salt solution (HBSS), adjusted to a cell concentration of 6.6×10^6/mL, and then used in an experiment. (3) 30 μL of the cell suspension and 60 μL of each compound solution comprising 0.2% DMSO/HBSS are mixed, and then preincubated at 37 degrees Celsius for 5 minutes. 30 μL of HBSS comprising 4 μg/mL of MCP-1 was added thereto, and then incubated for 30 seconds at 37 degrees Celsius. (4) 30 μL of 20 mM Tris-HCl (pH 7.5)/150 mM NaCl/1 mM Na2EDTA/1 mM EGTA/1% Triton/2.5 mM sodium pyrophosphate/1 mM β-glycerophosphate/1 mM Na3VO4/1 μg/ml leupeptin/50 nM APMSF was added thereto to dissolve cells. (5) The amount of AKT phosphorylation in a cell solution was measured by ELISA method. (6) To a micro well plate to which anti-phospho-Akt (Ser473) antibody (clone 193H12, derived from a rabbit) was solid-phased was added 100 μL of a prepared cell solution, incubated for 2 hours at 37 degrees Celsius, and then washed four times with Phosphate Buffered Saline/0.05% Tween-20. (7) An anti-AKT1 antibody (clone 2H10, derived from a mouse) was added thereto, incubated for 1 hour at 37 degrees Celsius, washed similarly, and then reacted with an HRP-labeled anti-mouse IgG antibody. (8) After incubating at 37 degrees Celsius for 30 minutes and then washing similarly, 100 μL of TMB (3,3′,5,5″-tetramethylbenzidine) was added thereto, followed by reacting at room temperature for 30 minutes. (9) 100 μL of 1 mol/L sulfuric acid was added to quench the color reaction, and then the absorbance at 450 nm was measured. (10) A series of diluted cell solutions of a positive control (a sample in the absence of a compound) were used as a calibration curve, the amount of AKT phosphorylation in a sample in the absence of MCP-1 was defined as 0% activity to calculate an inhibition ratio.

[8] = biological target: T1, PI-3 kinase γ; assay: PI3Kγ inhibitory activity (Ki value), HTRF assay; type: biochemical; details: calculated from IC50, test ATP 10 μM
Method: The PI3Kγ inhibitory activity (Ki value) of a compound was evaluated according to the following procedure.
5 μL of a compound solution comprising 10% DMSO and 200 μM of a compound was changed to 5 μL of a compound solution comprising 10% DMSO and 200, 64, 20, 6.4, 2, 0.64, or 0.20 μM of the compound (optionally, this is diluted to a lower concentration). By a method similar to the method for measuring PI3Kγ inhibitory activity, inhibition ratios were measured in the presence of the compound of 50, 16, 5, 1.6, 0.5, 0.16, and 0.05 μM (optionally, a lower concentration), and then an IC50 value was calculated by a logistic approximation method, or the linear regression method using two concentrations that across 50% inhibition. Separately, 5 μL of 40 μM ATP/10 mM MgCl2/5 mM DTT at the time of the start of a reaction in the absence of a compound was changed to 5 μL of 80, 40, 20, 10, 5, 2.5, 1.25, or 0.625 μM ATP/10 mM MgCl2/5 mM DTT, and then ratios of HTRF was measured by a similar method. The value of subtracting an HTRF ratio at each ATP concentration from an HTRF ratio in the absence of PI-3 kinase γ was defined as a value of multiplying reaction rate v by a constant to calculate the Michaelis-Menten constant Km by the Lineweaver-Burk plot method. A Ki value of a compound was calculated by the following formula.

[9] = Solubility test; type: physicochemical; details: 25 °C, fassgf or other biorelevant, kinetic from dmso stock, artificial intestinal juice pH 6.8, 1% DMSO, 25 degrees Celsius
Method: 10 mM compound solution was prepared using DMSO, and then 6 μL of the compound solution was added to 594 μL of artificial intestinal juice in pH 6.8 (to 250 mL of 0.2 mol/L potassium dihydrogen phosphate reagent solution was added 118 mL of 0.2 mol/L NaOH reagent solution and water to provide a final volume of 1000 mL). After standing at 25 degrees Celsius for 16 hours, the mixed solution was filtrated with suction. The filtrate was diluted twice with methanol/water (1/1), and then a concentration in the filtration was measured with HPLC or LC/MS/MS by the absolute calibration method.

[10] = Metabolic stability test, pooled human liver microsome; type: in vitro ADME; details: human liver microsome 0.5 mg protein/mL, NADPH, 37 degrees Celsius, 30 minutes
Method: After a subject compound was reacted for a certain time using a pooled human liver microsome commercially available, a reacted sample and an unreacted sample are compared to calculate a survival ratio, and then the degree of metabolism in the liver was evaluated.
0.2 mL of a buffer solution (50 mmol/L of Tris-HCl in pH 7.4, 150 mmol/L of potassium chloride, and 10 mmol/L of magnesium chloride) containing a human liver microsome of 0.5 mg protein/mL was reacted in the presence of 1 mmol/L NADPH at 37 degrees Celsius for 0 or 30 minutes (oxidative reaction). After reacting, 50 μL of the reaction solution was added to 100 μL of a solution of methanol/acetonitrile (1/1(v/v)), mixed, and then centrifuged at 3000 rpm for 15 minutes. A test compound in the supernatant was quantitated with LC/MS/MS. An amount of the compound remained at a reaction time of 0 minute was defined as 100%, and, based on that, an amount of the test compound remained after the reaction was calculated.

T1 sequence (P48736 whole entry, the tested form may be a part): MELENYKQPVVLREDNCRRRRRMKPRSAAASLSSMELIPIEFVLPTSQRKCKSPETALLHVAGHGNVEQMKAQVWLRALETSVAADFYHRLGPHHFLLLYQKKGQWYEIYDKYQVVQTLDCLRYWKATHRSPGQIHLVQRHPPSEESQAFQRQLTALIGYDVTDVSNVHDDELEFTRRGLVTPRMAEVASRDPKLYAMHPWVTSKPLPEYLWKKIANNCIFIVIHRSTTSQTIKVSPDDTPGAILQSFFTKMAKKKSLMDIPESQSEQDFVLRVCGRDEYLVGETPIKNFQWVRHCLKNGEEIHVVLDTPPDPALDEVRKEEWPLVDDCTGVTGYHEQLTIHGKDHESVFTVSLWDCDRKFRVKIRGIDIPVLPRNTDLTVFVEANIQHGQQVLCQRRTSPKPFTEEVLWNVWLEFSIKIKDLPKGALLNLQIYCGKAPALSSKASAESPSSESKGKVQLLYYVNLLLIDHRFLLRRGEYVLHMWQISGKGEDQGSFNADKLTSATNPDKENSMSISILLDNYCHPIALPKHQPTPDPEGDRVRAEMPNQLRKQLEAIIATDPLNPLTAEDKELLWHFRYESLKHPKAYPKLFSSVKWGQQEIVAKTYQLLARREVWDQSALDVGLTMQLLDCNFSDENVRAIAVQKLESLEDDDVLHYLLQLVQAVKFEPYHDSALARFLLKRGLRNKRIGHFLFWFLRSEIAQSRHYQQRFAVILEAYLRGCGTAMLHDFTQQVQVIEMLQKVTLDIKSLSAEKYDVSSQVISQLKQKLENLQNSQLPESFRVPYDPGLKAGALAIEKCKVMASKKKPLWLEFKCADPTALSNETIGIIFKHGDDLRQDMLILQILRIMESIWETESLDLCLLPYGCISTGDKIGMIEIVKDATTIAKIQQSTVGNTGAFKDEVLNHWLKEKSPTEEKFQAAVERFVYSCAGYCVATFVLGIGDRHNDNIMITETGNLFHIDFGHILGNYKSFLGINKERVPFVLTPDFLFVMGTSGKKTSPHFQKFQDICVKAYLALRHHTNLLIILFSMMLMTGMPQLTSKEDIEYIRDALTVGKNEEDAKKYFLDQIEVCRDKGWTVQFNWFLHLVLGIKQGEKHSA

inhibition at 50 µM [1] [%]	IC50 [2] [µM]	IC50 [3] [µM]	IC50 [4] [µM]	IC50 [5] [µM]	IC50 [6] [µM]	Ki [8] [µM]	solubility at 16 h [9] [µM]	Amount of the test compound remained after the reaction [10] [%]	SMILES	AKT phosphorylation inhibition ratio [7] [%]
73	> 20	> 20	> 20	> 20	> 20	–	–	–	COc1cccc(-c2ccc3nc(NC(=O)NCCC(=O)O)cn3n2)c1 [Compound I-260]	–
–	–	–	–	–	–	–	–	–	COc1cccc(-c2ccc3nc(NC(=O)NCCCS(=O)(=O)c4ccccc4)cn3n2)c1 [Compound I-266]	90.1
61	> 20	> 20	> 20	> 20	> 20	–	–	–	COc1cccc(-c2ccc3nc(NC(=O)NCc4cc(=O)[nH]o4)cn3n2)c1 [Compound I-267]	–
85	–	–	–	–	–	0.046	> 50	–	COc1cccc(-c2ccc3nc(NC(=O)NCC(=O)O)cn3n2)c1 [Compound I-120]	–
96	–	–	–	–	–	–	–	–	CCNC(=O)Nc1cn2nc(-c3cccc(OC)c3)ccc2n1 [Compound I-119]	92.9
86	–	–	–	–	–	–	> 50	96.8	CNC(=O)Nc1cn2nc(-c3cccnc3)ccc2n1 [Compound I-37]	86.7
89	> 20	> 20	> 20	> 20	> 20	0.074	> 50	–	COc1cncc(-c2ccc3nc(NC(=O)NCC(=O)O)cn3n2)c1 [Compound I-224]	–
83	–	–	–	–	–	0.052	> 50	–	CNC(=O)Nc1cn2nc(-c3cncc(OC)c3)ccc2n1 [Compound I-144]	–
74	> 20	> 20	> 20	> 20	> 20	–	> 50	–	COc1cccc(-c2ccc3nc(NC(=O)NCc4nn[nH]n4)cn3n2)c1 [Compound I-292]	–
88	–	–	–	–	–	–	–	–	COc1cccc(-c2ccc3nc(NC(=O)NO)cn3n2)c1 [Compound I-274]	82.6
